Experimental data as given in PubChem BioAssay (NCI).
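Exposure lasted 48 hours, with cells grown in 96-well plates and compounds tested at five concentrations. Definition used: TGI = concentration required for complete inhibition of growth.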

Assays:
Assay in all cases: DTP human tumour cell line panel, 48 h
[1] = tested on: NCI-H23 lung
[2] = tested on: HT29 colon
[3] = tested on: HCC-2998 colon
[4] = tested on: CAKI-1 renal
[5] = tested on: HS 578T breast
[6] = tested on: HL-60(TB) leukemia
[7] = tested on: CCRF-CEM leukemia
[8] = tested on: KM12 colon
[9] = tested on: HOP-62 NSCLC
[10] = tested on: NCI-H522 lung

| SMILES | TGI [1] | TGI [2] | TGI [3] | TGI [4] | TGI [5] | TGI [6] | TGI [7] | TGI [8] | TGI [9] | TGI [10] |
| --- | --- | --- | --- | --- | --- | --- | --- | --- | --- | --- |
| O=C(O)CSC(NC(=O)C(C(F)(F)F)C(F)(F)F)(C(F)(F)F)C(F)(F)F | > 100 µM | > 100 µM | > 100 µM | > 100 µM | > 100 µM | > 100 µM | > 100 µM | – | – | – |
| CN(C)P(=O)(Oc1occc1C(O)Cc1ccccc1)N(C)C (stereo unspecified) | > 100 µM | – | > 100 µM | > 100 µM | – | – | > 100 µM | > 100 µM | > 100 µM | > 100 µM |
| C[C@]1(S(=O)(=O)c2ccccc2)C[C@H]2N(Cc3ccccc3)[C@@H]1CCC21OCCO1 | > 100 µM | > 100 µM | – | > 100 µM | > 100 µM | 32.6 µM | > 100 µM | > 100 µM | > 100 µM | > 100 µM |
| CC1=CC(=O)CC2(C)CCC(C(C)CC(=O)CC(C)C)CC12 (stereo unspecified) | > 100 µM | 76.8 µM | – | 30.2 µM | > 100 µM | 43.2 µM | 61.2 µM | 36.4 µM | – | 30.8 µM |
| COc1cc(C=C2C(=O)NC(=S)NC2=O)cc(OC)c1OC | > 100 µM | > 100 µM | > 100 µM | > 100 µM | > 100 µM | > 100 µM | > 100 µM | > 100 µM | > 100 µM | – |
| OCC(O)C(O)C(O)/C=N/Nc1nc(O)c(/C=C2\C=Nc3ccccc32)[nH]1 (stereo unspecified) | > 100 µM | > 100 µM | > 100 µM | > 100 µM | > 100 µM | > 100 µM | > 100 µM | > 100 µM | > 100 µM | > 100 µM |
| COC(=O)C1OC(O[C@H]2CC[C@]3(C)[C@H]4CC=C5[C@@H]6CC(C)(C)CC[C@]6(C(=O)OC6OCC(O)C(O)C6OC6OC(C)C(OC7OCC(OC8OCC(O)C(O)C8O)C(O)C7O)C(O)C6O)[C@H](O)C[C@@]5(C)[C@]4(C)CC[C@H]3C2(C)C)C(O)C(O)C1O (stereo partly specified) | 6.53 µM | 8.9 µM | 3.06 µM | 11.7 µM | 13 µM | > 26.9 µM | > 100 µM | 14.2 µM | 13 µM | 7.76 µM |
| COC(=O)c1cc2c(cc1CC(Cc1ccc3c(c1)CCC3)C(=O)OC)CCC2 (stereo unspecified) | > 100 µM | > 100 µM | > 100 µM | > 100 µM | > 100 µM | 31.1 µM | > 100 µM | > 100 µM | > 100 µM | > 100 µM |
| COc1cc2c(cc1OC)C13CC[N+]4(C)CC5=CCOC6CC(=O)N2C1C6C5CC34[O-] (stereo unspecified) | > 100 µM | – | – | > 100 µM | > 100 µM | > 100 µM | > 100 µM | > 100 µM | > 100 µM | > 100 µM |
| COC(=O)[C@H](Cc1ccccc1)NC(=O)c1ccc(CNC(=O)/C=C/c2cccc(Oc3ccccc3)c2)cc1 | > 100 µM | > 100 µM | 89.7 µM | 58.1 µM | 46.3 µM | – | > 100 µM | > 100 µM | > 100 µM | – |
| Nc1nc(Nc2ccc(Cl)cc2)sc1C(=O)c1cccs1 | > 100 µM | > 100 µM | – | – | 42.2 µM | > 100 µM | > 100 µM | > 100 µM | 53.6 µM | – |
| CC1(C)[C@@H](Cn2cnc3c(Cl)nc(N)nc32)CC[C@@]1(C)CO | – | – | 48.7 µM | > 100 µM | 44.9 µM | – | > 100 µM | > 100 µM | > 100 µM | – |
| Nc1nc(Nc2ccccc2)sc1C(=O)c1c[nH]c2ccccc12 | 49.2 µM | 14.6 µM | – | – | 42.5 µM | 46.2 µM | 14.5 µM | 24.4 µM | 30.9 µM | – |
| S=C1CC(c2ccccc2)Sc2ccc(Cl)cc2N1 (stereo unspecified) | > 100 µM | > 100 µM | – | > 100 µM | 48.3 µM | > 100 µM | > 100 µM | > 100 µM | > 100 µM | > 100 µM |
| C=C1C(=O)OC2/C=C(/C)C3(O)OC(C)(CC(OC(=O)C(C)C)C12)CC3OC(C)=O (stereo unspecified) | 18.6 µM | 22 µM | 16.5 µM | 7.18 µM | – | > 19.7 µM | > 25.5 µM | 41 µM | > 100 µM | 6.25 µM |
| O=C(O)c1ccc2c(c1)CC1(C2)Cc2cc3c(cc2C1=O)CCC3 (stereo unspecified) | > 100 µM | > 100 µM | > 100 µM | – | > 100 µM | > 100 µM | > 100 µM | > 100 µM | > 100 µM | > 100 µM |
| CC/C(Cl)=N\OC(=O)Nc1ccc(F)c([N+](=O)[O-])c1 | 35.6 µM | > 57.8 µM | > 100 µM | 7.7 µM | 31.7 µM | – | > 20 µM | 34.2 µM | 35 µM | – |
| OC1(c2ccc(Cl)cc2)c2ccc(CN3CCCC3)cc2C2=NCCN21 (stereo unspecified) | 31.2 µM | 26.7 µM | – | 31.7 µM | 26 µM | 29.1 µM | 30.7 µM | 27.6 µM | 29.2 µM | – |
| O=C(CCc1cccc(O)c1)NCCCNC(=O)CCc1cccc(O)c1 | > 100 µM | > 100 µM | > 100 µM | > 100 µM | > 100 µM | – | > 100 µM | > 100 µM | > 100 µM | > 100 µM |
| O=c1n(Cc2ccccc2)c(=O)n2c(=O)n(Cc3ccccc3)c(=O)n12 | > 100 µM | > 100 µM | > 100 µM | > 100 µM | > 100 µM | > 100 µM | > 100 µM | > 100 µM | – | > 100 µM |
| Cc1ccc(S(=O)(=O)NC(=O)NNc2ccc(F)cc2)cc1 | – | > 100 µM | > 100 µM | > 100 µM | > 100 µM | > 100 µM | > 100 µM | > 100 µM | > 100 µM | > 100 µM |
| O=C1CS(=O)C23c4cc5ccccc5n4CCC2CCCN13 (stereo unspecified) | > 100 µM | > 100 µM | – | > 100 µM | > 100 µM | > 100 µM | – | > 100 µM | > 100 µM | > 100 µM |
| CN1COCc2cc3cc4c(cc3nc21)OCCO4 | – | > 100 µM | > 100 µM | > 100 µM | – | – | > 100 µM | > 100 µM | > 100 µM | > 100 µM |
